Among the data in patent US6544990B2, “Substituted quinolinecarboxamides as antiviral agents” (Pharmacia & Upjohn Company, priority 2001, dated 2003) are IC50 and melting point values, retold here.

Data set [1] addresses T1, HCMV polymerase (Human cytomegalovirus, UniProt P08546).
T1 construct: made in house; host or cells: recombinant baculovirus-infected SF-9 cells
Put plainly: HCMV polymerase scintillation proximity assay (SPA). The class given is biochemical. The conditions noted are these: CMV polymerase. As for the experimental part: The HCMV polymerase assay is performed using a scintillation proximity assay (SPA) as described in several references, such as N. D. Cook, et al., Pharmaceutical Manufacturing International, pages 49-53 (1992); K. Takeuchi, Laboratory Practice, September issue (1992); U.S. Pat. No. 4,568,649 (1986); which are incorporated by reference herein. Reactions are performed in 96-well plates. The assay is conducted in 100 μl volume with 5.4 mM HEPES (pH 7.5), 11.7 mM KCl, 4.5 mM MgCl2, 0.36 mg/ml BSA, and 90 nM 3H-dTTP. Assays are run with and without CHAPS, (3-[(3-Cholamidopropyl)-dimethylammonio]-1-propane-sulfonate) at a final concentration of 2 mM. HCMV polymerase is diluted in enzyme dilution buffer containing 50% glycerol, 250 mM NaCl, 10 mM HEPES (pH 7.5), 100 μg/ml BSA, and 0.01% sodium azide. The HCMV polymerase, which is expressed in recombinant baculovirus-infected SF-9 cells and purified according to literature procedures, is added at 10% (or 10 μl ) of the final reaction volume, i.e., 100 μl. Compounds are diluted in 50% DMSO and 10 μl are added to each well. Control wells contain an equivalent concentration of DMSO. Unless noted otherwise, reactions are initiated via the addition of 6 nM biotinylated poly(dA)-oligo(dT) template/primer to reaction mixtures containing the enzyme, substrate, and compounds of interest. Plates are incubated in a 25 C or 37 C H20 bath and terminated via the addition of 40 μl/reaction of 0.5 M EDTA (pH 8) per well. Reactions are terminated within the time-frame during which substrate incorporation is linear and varied depending upon the enzyme and conditions used, i.e., 30 min. for HCMV polymerase. Ten μl of streptavidin-SPA beads (20 mg/mil in PBS/10% glycerol) are added following termination of the reaction. Plates are incubated 10 min. at 37 C, then equilibrated to room temperature, and counted on a Packard Topcount. Linear regressions are performed and IC50's are calculated using computer software.
A modified version of the above HCMV polymerase assay is performed as described above, but with the following changes: Compounds are diluted in 100% DMSO until final dilution into assay buffer. In the previous assay, compounds are diluted in 50% DMSO. 4.5 mM dithiotherotol (DTT) is added to the polymerase buffer.

For data set [2], the target named is HSV polymerase (Human herpesvirus 1, UniProt P04293). Nature of the data set: Polymerase scintillation proximity assay (SPA), HSV. It counts as biochemical. Background: SPA uses beads or plates that emit light when radiolabelled molecules are held near them.
Data set [3] addresses VZV polymerase (Varicella-zoster virus, UniProt P09252). Nature of the data set: Polymerase scintillation proximity assay (SPA), VZV. The class given is biochemical.

T1 sequence (P08546 whole entry): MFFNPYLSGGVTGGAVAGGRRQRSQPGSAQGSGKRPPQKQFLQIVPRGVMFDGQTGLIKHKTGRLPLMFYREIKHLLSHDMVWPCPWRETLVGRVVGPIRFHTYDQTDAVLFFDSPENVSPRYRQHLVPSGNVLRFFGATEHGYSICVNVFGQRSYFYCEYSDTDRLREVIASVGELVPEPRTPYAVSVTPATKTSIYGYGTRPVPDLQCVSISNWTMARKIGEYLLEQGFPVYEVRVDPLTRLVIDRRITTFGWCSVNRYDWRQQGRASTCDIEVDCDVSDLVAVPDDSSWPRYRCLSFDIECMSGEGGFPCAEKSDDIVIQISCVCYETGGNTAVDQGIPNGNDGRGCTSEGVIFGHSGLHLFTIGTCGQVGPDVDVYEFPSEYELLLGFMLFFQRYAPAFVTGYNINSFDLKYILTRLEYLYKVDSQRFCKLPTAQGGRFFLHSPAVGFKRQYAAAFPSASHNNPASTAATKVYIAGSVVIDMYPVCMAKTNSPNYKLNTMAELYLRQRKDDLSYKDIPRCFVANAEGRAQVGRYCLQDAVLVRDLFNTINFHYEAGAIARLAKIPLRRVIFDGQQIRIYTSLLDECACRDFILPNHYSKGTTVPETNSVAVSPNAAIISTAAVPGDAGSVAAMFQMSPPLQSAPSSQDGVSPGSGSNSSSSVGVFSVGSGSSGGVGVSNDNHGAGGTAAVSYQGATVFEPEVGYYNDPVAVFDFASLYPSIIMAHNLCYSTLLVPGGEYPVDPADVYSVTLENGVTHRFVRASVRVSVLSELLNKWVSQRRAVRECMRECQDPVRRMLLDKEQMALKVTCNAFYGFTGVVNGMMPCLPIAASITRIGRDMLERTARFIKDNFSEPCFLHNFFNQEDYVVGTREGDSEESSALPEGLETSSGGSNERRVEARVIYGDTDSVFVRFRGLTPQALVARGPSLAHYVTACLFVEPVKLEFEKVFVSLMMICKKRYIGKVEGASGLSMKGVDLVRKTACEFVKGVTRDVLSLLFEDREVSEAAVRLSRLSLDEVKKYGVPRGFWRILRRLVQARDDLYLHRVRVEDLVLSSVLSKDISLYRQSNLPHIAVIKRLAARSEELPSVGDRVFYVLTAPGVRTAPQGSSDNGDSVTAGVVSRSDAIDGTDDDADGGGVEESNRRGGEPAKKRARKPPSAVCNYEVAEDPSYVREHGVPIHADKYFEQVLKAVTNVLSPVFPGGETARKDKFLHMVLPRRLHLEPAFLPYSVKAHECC
VZV polymerase, sequence (P09252 whole entry): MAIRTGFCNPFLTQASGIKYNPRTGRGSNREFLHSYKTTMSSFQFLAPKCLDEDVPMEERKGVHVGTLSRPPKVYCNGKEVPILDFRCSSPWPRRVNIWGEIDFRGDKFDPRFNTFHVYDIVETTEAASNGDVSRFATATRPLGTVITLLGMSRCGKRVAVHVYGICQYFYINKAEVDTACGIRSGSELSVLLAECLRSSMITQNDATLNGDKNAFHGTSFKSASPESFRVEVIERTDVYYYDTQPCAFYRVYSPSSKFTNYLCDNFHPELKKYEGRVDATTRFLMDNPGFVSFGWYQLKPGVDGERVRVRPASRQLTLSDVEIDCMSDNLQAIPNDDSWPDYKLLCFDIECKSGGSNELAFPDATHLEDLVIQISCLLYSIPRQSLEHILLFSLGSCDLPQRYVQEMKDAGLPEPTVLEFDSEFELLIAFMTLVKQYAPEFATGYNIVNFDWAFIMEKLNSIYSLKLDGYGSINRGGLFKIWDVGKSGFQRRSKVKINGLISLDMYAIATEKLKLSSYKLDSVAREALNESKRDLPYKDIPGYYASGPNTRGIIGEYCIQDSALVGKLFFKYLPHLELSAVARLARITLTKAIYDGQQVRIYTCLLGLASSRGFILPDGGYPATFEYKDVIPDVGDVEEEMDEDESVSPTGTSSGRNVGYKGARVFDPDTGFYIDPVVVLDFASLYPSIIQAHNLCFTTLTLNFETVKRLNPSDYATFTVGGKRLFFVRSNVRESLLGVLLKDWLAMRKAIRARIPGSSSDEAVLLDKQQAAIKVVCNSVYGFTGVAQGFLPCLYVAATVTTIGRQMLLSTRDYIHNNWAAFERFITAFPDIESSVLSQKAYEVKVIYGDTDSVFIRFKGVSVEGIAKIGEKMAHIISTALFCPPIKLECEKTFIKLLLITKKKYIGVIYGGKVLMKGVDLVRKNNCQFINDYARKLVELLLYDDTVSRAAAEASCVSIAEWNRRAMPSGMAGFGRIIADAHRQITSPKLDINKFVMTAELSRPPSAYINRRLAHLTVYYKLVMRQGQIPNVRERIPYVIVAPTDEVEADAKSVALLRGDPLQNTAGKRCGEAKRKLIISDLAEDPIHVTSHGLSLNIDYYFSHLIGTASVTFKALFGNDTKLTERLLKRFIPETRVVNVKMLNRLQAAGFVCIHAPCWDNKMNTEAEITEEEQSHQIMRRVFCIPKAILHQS
HSV polymerase, sequence (P04293 whole entry): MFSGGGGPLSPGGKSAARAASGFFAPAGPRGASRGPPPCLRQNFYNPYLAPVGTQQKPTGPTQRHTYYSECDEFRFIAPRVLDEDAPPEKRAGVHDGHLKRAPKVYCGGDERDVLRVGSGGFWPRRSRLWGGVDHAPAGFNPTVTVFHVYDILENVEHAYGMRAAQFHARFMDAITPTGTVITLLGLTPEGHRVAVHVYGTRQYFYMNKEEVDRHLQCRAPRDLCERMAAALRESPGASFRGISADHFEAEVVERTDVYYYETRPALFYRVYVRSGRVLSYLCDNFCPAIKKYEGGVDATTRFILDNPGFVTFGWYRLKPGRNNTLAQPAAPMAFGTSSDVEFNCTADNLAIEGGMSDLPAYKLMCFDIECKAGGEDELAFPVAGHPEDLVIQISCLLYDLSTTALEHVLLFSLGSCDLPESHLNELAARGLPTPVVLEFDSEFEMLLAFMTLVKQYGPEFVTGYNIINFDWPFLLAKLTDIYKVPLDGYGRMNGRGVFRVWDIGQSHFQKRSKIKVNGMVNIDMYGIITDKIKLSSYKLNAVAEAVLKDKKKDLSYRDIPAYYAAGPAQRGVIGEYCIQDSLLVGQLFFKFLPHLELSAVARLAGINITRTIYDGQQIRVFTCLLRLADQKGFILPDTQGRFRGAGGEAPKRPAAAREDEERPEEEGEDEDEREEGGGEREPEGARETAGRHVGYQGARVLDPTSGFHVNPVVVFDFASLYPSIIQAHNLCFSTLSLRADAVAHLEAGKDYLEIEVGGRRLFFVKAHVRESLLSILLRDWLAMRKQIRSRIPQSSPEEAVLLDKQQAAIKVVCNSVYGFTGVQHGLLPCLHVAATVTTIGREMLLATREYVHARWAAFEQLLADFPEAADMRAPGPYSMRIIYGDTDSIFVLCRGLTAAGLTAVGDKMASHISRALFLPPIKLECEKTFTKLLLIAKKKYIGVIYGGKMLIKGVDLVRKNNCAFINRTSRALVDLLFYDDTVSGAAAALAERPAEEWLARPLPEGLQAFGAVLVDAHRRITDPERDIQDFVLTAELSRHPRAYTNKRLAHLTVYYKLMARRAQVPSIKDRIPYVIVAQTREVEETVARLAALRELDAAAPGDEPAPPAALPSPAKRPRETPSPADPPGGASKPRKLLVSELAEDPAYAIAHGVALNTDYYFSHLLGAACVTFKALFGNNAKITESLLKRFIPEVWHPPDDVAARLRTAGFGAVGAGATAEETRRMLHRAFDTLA

The molecule `Cn1cc(C(=O)NCc2ccc(Cl)cc2)c(=O)c2cc(CC3CCOCC3)cc(C#CCO)c21` [Example 1, N-(4-chlorobenzyl)-8-(3-hydroxy-1-propynyl)-1-methyl-4-oxo-6-(tetrahydro-2H-pyran-4-ylmethyl)-1,4-dihydro-3-quinolinecarboxamide] showed a melting point of 166 to 168 °C. The same molecule showed an IC50 in data set [1] of 0.32 µM. Moreover, in data set [2], the IC50 was determined as 0.25 µM. The molecule also showed an IC50 in data set [3] of 0.18 µM. Consider `Cn1cc(C(=O)NCc2ccc(Cl)cc2)c(=O)c2cc(CC3CCOCC3)cc(C#CCCO)c21` [Example 2, N-(4-chlorobenzyl)-8-(4-hydroxy-1-butynyl)-1-methyl-4-oxo-6-(tetrahydro-2H-pyran-4-ylmethyl)-1,4-dihydro-3-quinolinecarboxamide], for which the melting point lay within 186 to 188 °C. In data set [1], this molecule displayed an IC50 of 0.32 µM.

As to `CN(C)CC#Cc1cc(CC2CCOCC2)cc2c(=O)c(C(=O)NCc3ccc(Cl)cc3)cn(C)c12` [Example 3, N-(4-chlorobenzyl)-8-[3-(dimethylamino)-1-propynyl]-1-methyl-4-oxo-6-(tetrahydro-2H-pyran-4-ylmethyl)-1,4-dihydro-3-quinolinecarboxamide], the melting point lay within 157 to 159 °C. Besides, the midpoint of inhibition in data set [1], the IC50, lay at 0.87 µM. As to `CN(C)CC#Cc1cc(CN2CCOCC2)cc2c(=O)c(C(=O)NCc3ccc(Cl)cc3)cn(C)c12` [Example 5, N-(4-chlorobenzyl)-8-[3-(dimethylamino)-1-propynyl]-1-methyl-6-(4-morpholinylmethyl)-4-oxo-1,4-dihydro-3-quinolinecarboxamide], the melting point was in the range of 154 to 157 °C. This molecule also gave an IC50 in data set [1] of 1.6 µM. The molecule `Cn1cc(C(=O)NCc2ccc(Cl)cc2)c(=O)c2cc(CN3CCOCC3)cc(C#CCC[C@@H]3COC(=O)N3)c21` [Example 9, N-(4-chlorobenzyl)-1-methyl-6-(4-morpholinylmethyl)-4-oxo-8-{4-[(4R)-2-oxo-1,3-oxazolidin-4-yl]-1-butynyl}-1,4-dihydro-3-quinolinecarboxamide] had a melting point of 171 to 173 °C. The midpoint of inhibition in data set [1], the IC50, lay at 0.55 µM.

`Cn1cc(C(=O)NCc2ccc(Cl)cc2)c(=O)c2cc(CN3CCOCC3)cc(C#CCF)c21` [Example 12, N-(4-chlorobenzyl)-8-(3-fluoroprop-1-ynyl)-1-methyl-6-(morpholin-4-ylmethyl)-4-oxo-1,4-dihydroquinoline-3-carboxamide] registered a melting point of 189 to 191 °C. Moreover, the IC50 in data set [1] came out at 0.77 µM. On to `Cc1cncn1CC#Cc1cc(CN2CCOCC2)cc2c(=O)c(C(=O)NCc3ccc(Cl)cc3)cn(C)c12` [Example 14, N-(4-chlorobenzyl)-1-methyl-8-[3-(5-methyl-1H-imidazol-1-yl)prop-1-ynyl]-6-(morpholin-4-ylmethyl)-4-oxo-1,4-dihydroquinoline-3-carboxamide], for which half-maximal inhibition in data set [1] (IC50) required 0.52 µM. `CC(O)CC#Cc1cc(CN2CCOCC2)cc2c(=O)c(C(=O)NCc3ccc(Cl)cc3)cn(C)c12` (stereo not drawn) [Example 18, N-(4-chlorobenzyl)-8-(4-hydroxypent-1-ynyl)-1-methyl-6-(morpholin-4-ylmethyl)-4-oxo-1,4-dihydroquinoline-3-carboxamide] displayed a melting point of 178 to 180 °C. In addition, in data set [1], the IC50 amounted to 0.61 µM. Consider `Cn1cc(C(=O)NCc2ccc(Cl)cc2)c(=O)c2cc(CN3CCOCC3)cc(C#CCN3CCC(O)CC3)c21` [Example 19, N-(4-chlorobenzyl)-8-[3-(4-hydroxypiperidin-1-yl)prop-1-ynyl]-1-methyl-6-(morpholin-4-ylmethyl)-4-oxo-1,4-dihydroquinoline-3-carboxamide], for which the melting point lay within 180 to 183 °C. Besides, the IC50 in data set [1] worked out at 1.01 µM. For the molecule `Cn1cc(C(=O)NCc2ccc(Cl)cc2)c(=O)c2cc(CN3CCOCC3)cc(C#CCN3CCC(O)C3)c21` (stereo not drawn) [Example 20, N-(4-chlorobenzyl)-8-[3-(3-hydroxypyrrolidin-1-yl)prop-1-ynyl]-1-methyl-6-(morpholin-4-ylmethyl)-4-oxo-1,4-dihydroquinoline-3-carboxamide], the melting point lay in the range of 144 to 146 °C. Further, in data set [1], half-maximal inhibition (IC50) was put at 1.02 µM.

Turning to `CN(CC#Cc1cc(CN2CCOCC2)cc2c(=O)c(C(=O)NCc3ccc(Cl)cc3)cn(C)c12)CC(O)CO` (stereo not drawn) [Example 21, N-(4-chlorobenzyl)-8-{3-[(2,3-dihydroxypropyl)(methyl)amino]prop-1-ynyl}-1-methyl-6-(morpholin-4-ylmethyl)-4-oxo-1,4-dihydroquinoline-3-carboxamide], the melting point lay within 140 to 142 °C. For the same molecule, in data set [1], 0.8 µM corresponded to half-maximal inhibition (IC50). The like results for `CN(CC#Cc1cc(CN2CCOCC2)cc2c(=O)c(C(=O)NCc3ccc(Cl)cc3)cn(C)c12)CCO` [Example 22, N-(4-chlorobenzyl)-8-{3-[(2-hydroxyethyl)(methyl)amino]prop-1-ynyl}-1-methyl-6-(morpholin-4-ylmethyl)-4-oxo-1,4-dihydroquinoline-3-carboxamide] were, in that order, 148 to 149 °C and 0.82 µM. The like results for `Cn1cc(C(=O)NCc2ccc(Cl)cc2)c(=O)c2cc(CN3CCOCC3)cc(C#CCC(CO)CO)c21` [Example 24, N-(4-chlorobenzyl)-8-[5-hydroxy-4-(hydroxymethyl)pent-1-ynyl]-1-methyl-6-(morpholin-4-ylmethyl)-4-oxo-1,4-dihydroquinoline-3-carboxamide] were, in that order, 190 to 193 °C and 0.56 µM.

`Cn1cc(C(=O)NCc2ccc(Cl)cc2)c(=O)c2cc(CN3CCOCC3)cc(C#CCN3CCCC(CO)C3)c21` (stereo not drawn) [Example 25, N-(4-chlorobenzyl)-8-{3-[3-(hydroxymethyl)piperidin-1-yl]prop-1-ynyl}-1-methyl-6-(morpholin-4-ylmethyl)-4-oxo-1,4-dihydroquinoline-3-carboxamide]: in data set [1], 0.74 µM corresponded to half-maximal inhibition (IC50).

`Cn1cc(C(=O)NCc2ccc(Cl)cc2)c(=O)c2cc(CN3CCOCC3)cc(C#CCN3CCN(CCO)CC3)c21` [Example 26, N-(4-chlorobenzyl)-8-{3-[4-(2-hydroxyethyl)piperazin-1-yl]prop-1-ynyl}-1-methyl-6-(morpholin-4-ylmethyl)-4-oxo-1,4-dihydroquinoline-3-carboxamide] returned an IC50 in data set [1] of 1.29 µM. Compared with the last molecule, the IC50 is about 1.7-fold higher.

In turn, `Cn1cc(C(=O)NCc2ccc(Cl)cc2)c(=O)c2cc(CN3CCOCC3)cc(C#CCN3CCC[C@H]3CO)c21` [Example 27, N-(4-chlorobenzyl)-8-{3-[(2S)-2-(hydroxymethyl)pyrrolidin-1-yl]prop-1-ynyl}-1-methyl-6-(morpholin-4-ylmethyl)-4-oxo-1,4-dihydroquinoline-3-carboxamide] yielded an IC50 in data set [1] of 0.94 µM. This IC50 and that of the molecule before are within 1.5-fold of each other.

The molecule `Cn1cc(C(=O)NCc2ccc(Cl)cc2)c(=O)c2cc(CN3CCOCC3)cc(C#CCN3CCCC(O)C3)c21` (stereo not drawn) [Example 28, N-(4-chlorobenzyl)-8-[3-(3-hydroxypiperidin-1-yl)prop-1-ynyl]-1-methyl-6-(morpholin-4-ylmethyl)-4-oxo-1,4-dihydroquinoline-3-carboxamide] gave an IC50 in data set [1] of 0.82 µM. In the case of `Cn1cc(C(=O)NCc2ccc(Cl)cc2)c(=O)c2cc(CN3CCOCC3)cc(C#CCN3CCC[C@@H]3CO)c21` [Example 29, N-(4-chlorobenzyl)-8-{3-[(2R)-2-(hydroxymethyl)pyrrolidin-1-yl]prop-1-ynyl}-1-methyl-6-(morpholin-4-ylmethyl)-4-oxo-1,4-dihydroquinoline-3-carboxamide], half-maximal inhibition in data set [1] (IC50) required 0.73 µM. This IC50 and that of the molecule before are within 1.5-fold of each other. Turning to `Cn1cc(C(=O)NCc2ccc(Cl)cc2)c(=O)c2cc(CN3CCOCC3)cc(C#CCN3CCCCC3CCO)c21` (stereo not drawn) [Example 30, N-(4-chlorobenzyl)-8-{3-[2-(2-hydroxyethyl)piperidin-1-yl]prop-1-ynyl}-1-methyl-6-(morpholin-4-ylmethyl)-4-oxo-1,4-dihydroquinoline-3-carboxamide], inhibition in data set [1] was half-maximal at 0.71 µM (IC50). In the case of `CCCCN(CC#Cc1cc(CN2CCOCC2)cc2c(=O)c(C(=O)NCc3ccc(Cl)cc3)cn(C)c12)CCO` [Example 31, 8-{3-[butyl(2-hydroxyethyl)amino]prop-1-ynyl}-N-(4-chlorobenzyl)-1-methyl-6-(morpholin-4-ylmethyl)-4-oxo-1,4-dihydroquinoline-3-carboxamide], the results for the IC50 in data set [1], in data set [2] and in data set [3] were 0.49 µM, 0.55 µM and 0.33 µM, respectively.

By IC50 is commonly meant the concentration that gives 50% inhibition. Read a high IC50 as weaker potency in that assay. What is called melting point is the temperature, or range, at which the solid turns liquid.
